According to ChEMBL document CHEMBL1143251 (J Med Chem, 2008):
Activity calls are given as the source filed them. The calls are words filed in the database; no cut-off is given here.

How the values were obtained:
Rattus norvegicus = organism: Rattus norvegicus; assay: Ratio of Ki for rat sigma1 opioid receptor to Ki for rat sigma2 opioid receptor
[1] = Displacement of [3H]DTG from opioid sigma2 receptor in rat brain homogenate; format: tissue-based
Mus musculus = assay: Inhibition of cocaine-induced convulsions in ip dosed Swiss Webster mouse after 15 mins; format: functional, organism-based
[2] = target: Sigma non-opioid intracellular receptor 1 (Rattus norvegicus, UniProt Q9R0C9); assay: Displacement of [3H](+)-pentazocine from opioid sigma1 receptor in rat brain homogenate; format: tissue-based
Chain of Sigma non-opioid intracellular receptor 1 (Q9R0C9 whole entry): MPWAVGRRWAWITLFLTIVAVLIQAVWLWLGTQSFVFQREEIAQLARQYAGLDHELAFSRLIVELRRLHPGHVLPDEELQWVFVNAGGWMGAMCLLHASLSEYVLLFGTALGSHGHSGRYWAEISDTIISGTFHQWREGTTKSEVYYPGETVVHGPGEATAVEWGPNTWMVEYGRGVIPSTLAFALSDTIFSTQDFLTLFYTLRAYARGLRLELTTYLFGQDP

[3] = target: Sodium-dependent serotonin transporter (Rattus norvegicus, UniProt P31652); assay: Displacement of [3H]paroxetine from serotonin transporter in rat brain homogenate; format: tissue-based
Chain of Sodium-dependent serotonin transporter (P31652 whole entry): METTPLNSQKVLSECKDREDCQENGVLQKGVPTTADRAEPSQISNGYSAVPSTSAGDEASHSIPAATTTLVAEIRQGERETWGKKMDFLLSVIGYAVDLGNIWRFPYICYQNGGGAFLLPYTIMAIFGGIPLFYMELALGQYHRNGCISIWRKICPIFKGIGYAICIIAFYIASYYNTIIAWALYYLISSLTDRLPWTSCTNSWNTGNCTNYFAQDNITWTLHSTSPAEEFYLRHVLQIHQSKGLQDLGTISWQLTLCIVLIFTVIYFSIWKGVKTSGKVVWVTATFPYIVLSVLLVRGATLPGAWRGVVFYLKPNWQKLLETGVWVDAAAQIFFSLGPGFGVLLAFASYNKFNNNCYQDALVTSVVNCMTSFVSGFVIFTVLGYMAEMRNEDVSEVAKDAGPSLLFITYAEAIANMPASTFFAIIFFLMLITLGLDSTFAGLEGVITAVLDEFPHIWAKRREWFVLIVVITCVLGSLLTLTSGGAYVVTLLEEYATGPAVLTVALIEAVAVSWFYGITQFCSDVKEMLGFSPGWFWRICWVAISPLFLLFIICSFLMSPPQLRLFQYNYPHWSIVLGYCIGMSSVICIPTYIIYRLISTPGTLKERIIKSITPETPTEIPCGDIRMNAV

[4] = target: Sodium-dependent dopamine transporter (Rattus norvegicus, UniProt P23977); assay: Displacement of [3H]WIN-35428 from dopamine transporter in rat brain homogenate; format: tissue-based
Chain of Sodium-dependent dopamine transporter (P23977 whole entry): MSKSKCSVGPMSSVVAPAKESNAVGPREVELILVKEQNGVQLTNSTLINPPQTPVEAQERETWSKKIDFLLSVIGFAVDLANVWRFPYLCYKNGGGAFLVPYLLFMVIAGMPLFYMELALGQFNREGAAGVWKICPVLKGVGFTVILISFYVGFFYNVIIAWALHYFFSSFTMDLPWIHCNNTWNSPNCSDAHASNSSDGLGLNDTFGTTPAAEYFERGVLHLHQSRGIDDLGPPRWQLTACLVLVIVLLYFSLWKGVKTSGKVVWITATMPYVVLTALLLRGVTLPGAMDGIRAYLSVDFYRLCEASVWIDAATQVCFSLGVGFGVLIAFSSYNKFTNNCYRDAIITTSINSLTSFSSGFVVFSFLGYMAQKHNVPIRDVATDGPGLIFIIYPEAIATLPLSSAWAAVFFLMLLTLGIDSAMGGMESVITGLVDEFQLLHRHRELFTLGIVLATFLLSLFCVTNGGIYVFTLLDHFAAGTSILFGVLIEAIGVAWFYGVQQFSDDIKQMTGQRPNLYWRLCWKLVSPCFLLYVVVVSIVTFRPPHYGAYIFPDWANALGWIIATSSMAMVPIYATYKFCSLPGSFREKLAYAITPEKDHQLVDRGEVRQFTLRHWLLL

[5] = Displacement of [3H]ketanserin from 5HT2 receptor in rat brain homogenate; format: tissue-based
Glutamate NMDA receptor = assay: Displacement of [3H]TCP from NMDA receptor in rat brain homogenate; format: tissue-based
[6] = target: Norepinephrine transporter (Rattus norvegicus, UniProt Q9WTR4); assay: Displacement of [3H]nisoxetine from norepinephrine transporter in rat brain homogenate; format: tissue-based
Chain of Norepinephrine transporter (Q9WTR4 whole entry): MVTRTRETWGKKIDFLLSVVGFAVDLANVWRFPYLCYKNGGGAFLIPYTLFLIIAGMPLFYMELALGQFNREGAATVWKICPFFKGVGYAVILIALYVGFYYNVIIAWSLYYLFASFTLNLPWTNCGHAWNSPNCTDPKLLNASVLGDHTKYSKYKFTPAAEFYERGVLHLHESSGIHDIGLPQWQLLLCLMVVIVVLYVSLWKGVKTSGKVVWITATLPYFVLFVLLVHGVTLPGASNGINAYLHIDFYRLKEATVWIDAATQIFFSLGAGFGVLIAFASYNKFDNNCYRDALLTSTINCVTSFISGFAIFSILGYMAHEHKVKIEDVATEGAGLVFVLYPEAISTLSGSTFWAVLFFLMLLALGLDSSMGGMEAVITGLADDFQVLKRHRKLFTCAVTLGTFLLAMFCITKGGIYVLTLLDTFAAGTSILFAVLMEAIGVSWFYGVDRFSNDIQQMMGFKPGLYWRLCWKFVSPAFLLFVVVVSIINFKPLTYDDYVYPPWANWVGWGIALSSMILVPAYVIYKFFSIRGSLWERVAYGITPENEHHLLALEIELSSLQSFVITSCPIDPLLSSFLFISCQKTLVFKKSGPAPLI

[7] = Displacement of [3H]bremazocine from opioid receptor in rat brain homogenate; format: tissue-based

Compound | Ratio Ki (Rattus norvegicus) | Ki [1] | further results
O=c1oc2ccccc2n1CCCCCN1CCN(C2CCCCC2)CC1 | 1.79 | 5.89 nM | 
O=c1sc2ccccc2n1CCCCN1CCN(C2CCCCC2)CC1 |  | 0.39 nM | 
O=c1oc2ccccc2n1CCCCCCN1CCN(C2CCCCC2)CC1 | 1.5 | 3.06 nM | 
O=c1oc2ccccc2n1CCN1CCN(C2CCCCC2)CC1 |  | 5.43 nM | 
O=c1oc2ccccc2n1CCCN1CCN(C2CCCCC2)CC1 |  | 8.74 nM | 
O=c1sc2ccccc2n1CCN1CCN(C2CCCCC2)CC1 |  | 2.25 nM | 
O=c1sc2ccccc2n1CCCCCN1CCN(C2CCCCC2)CC1 |  | 2.44 nM | 
O=c1oc2ccccc2n1CCCCN1CCN(C2CCCCC2)CC1 | 6.15 | 1.83 nM | 
O=c1sc2ccccc2n1CCCCCCN1CCN(C2CCCCC2)CC1 | 4.4 | 1.49 nM | 
S=c1oc2ccccc2n1CCCCN1CCN(C2CCCCC2)CC1 |  | 0.77 nM | 
CCCc1ccc2c(c1)sc(=O)n2CCN1CCCCCC1 | 0.00014 | 831 nM | Activity (Mus musculus): Active; Ki [2]: 0.12 nM
COc1cccc2c1CCCC2CCCN1CCN(C2CCCCC2)CC1 (configuration not stated) | 1.33 | 1.11 nM | Ki [2]: 1.48 nM
S=c1sc2ccccc2n1CCCCN1CCN(C2CCCCC2)CC1 | 2.33 | 0.55 nM | Ki [3]: 1400 nM; Ki [4]: 1170 nM; Ki [5]: 1330 nM; Ki (Glutamate NMDA receptor): > 10000 nM; Ki [6]: > 10000 nM; Ki [7]: > 10000 nM
c1ccc2oc(SCCCCN3CCN(C4CCCCC4)CC3)nc2c1 |  | 3.77 nM | 
O=c1sc2ccccc2n1CCCN1CCN(C2CCCCC2)CC1 | 1.84 | 3.05 nM | 
